# Test results taken from patent US20240360178A1, “MACROCYCLIC IMMUNOMODULATORS” (Bristol-Myers Squibb Company, priority 2021, published 2024).
# Positions of bridges follow the written chain, without caps; N, C: chain ends. Non-standard residues stand in square brackets, D forms with d. Residues, ends and D or L forms follow the SMILES beside them. ξ: configuration not given here. *: point of attachment. Phe(3,4,5-F3) = N[C@@H](Cc1cc(F)c(F)c(F)c1)C(=O)O; Bip = N[C@@H](Cc1ccc(-c2ccccc2)cc1)C(=O)O; hTyr = N[C@@H](CCc1ccc(O)cc1)C(=O)O; NMeF = CN[C@@H](Cc1ccccc1)C(=O)O; ξW = NC(Cc1c[nH]c2ccccc12)C(=O)O; Cha = N[C@@H](CC1CCCCC1)C(=O)O; ξR = N=C(N)NCCCC(N)C(=O)O; Carboxymethyl = O=C(O)C*; NMeA = CN[C@@H](C)C(=O)O; Orn = NCCC[C@H](N)C(=O)O; Dab = NCC[C@H](N)C(=O)O; Dap = NC[C@H](N)C(=O)O; ξV = CC(C)C(N)C(=O)O; Sar = CNCC(=O)O
# Target: T1, human PD-1 (Jurkat-PD-1 cells) / PE-labeled human PD-L1-Ig (Homo sapiens, UniProt Q15116)
# T1 construct: expressed in transfected cells; host or cells: Jurkat cell line over-expressing human PD-1
# T1 sequence (Q15116 25-288): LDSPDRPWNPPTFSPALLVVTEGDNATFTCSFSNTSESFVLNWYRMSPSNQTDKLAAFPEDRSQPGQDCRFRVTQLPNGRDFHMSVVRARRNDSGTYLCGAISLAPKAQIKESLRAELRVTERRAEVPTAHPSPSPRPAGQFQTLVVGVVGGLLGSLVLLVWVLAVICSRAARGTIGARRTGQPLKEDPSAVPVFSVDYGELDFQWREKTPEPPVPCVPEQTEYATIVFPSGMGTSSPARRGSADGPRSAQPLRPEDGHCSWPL
# Assay: Jurkat-PD-1 Cell Binding High-Content Screening Assay (CBA); Jurkat hPD1-PDL1 assay
# Details: Jurkat cell line over-expressing human PD-1; PE-labeled PD-L1-Ig 20 nM final; compound incubated 2 hours at 37° C.; read-out: Jurkat HPD1-PDL1 IC50
# Procedure, shortened: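 Jurkat-hPD-1 cells; cpd 2 h, 37° C; then PE-PD-L1-Ig 20 nM final in DMEM/10% FCS; high-content imaging read-out.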
row,SMILES,IC50
1,CC(C)C[C@@H]1NC(=O)[C@H](CC(N)=O)NC(=O)CN(C)C(=O)[C@H](C)N(C)C(=O)[C@H](C(C)C)NC(=O)[C@H](Cc2ccc(-c3ccccc3)cc2)NC(=O)[C@H](C(C)C)NC(=O)[C@H](Cc2c[nH]c3ccccc23)NC(=O)[C@H](CC(=O)O)NC(=O)[C@H](Cc2ccc(O)cc2)NC(=O)[C@H](Cc2ccccc2)NC(=O)CSC[C@@H](C(=O)N[C@@H](C)C(N)=O)NC(=O)[C@H](CO)NC(=O)[C@H](C(C)C)NC1=O [Example 1149] ({CH2CO}-FYDWV[Bip]V[NMeA][Sar]NLVSCA-NH2; thioether N-14),0.69 µM
2,CC(C)C[C@@H]1NC(=O)[C@H](Cc2c[nH]c3ccccc23)NC(=O)[C@H](CC(=O)O)NC(=O)[C@H](Cc2ccc(O)cc2)NC(=O)[C@H](Cc2ccccc2)NC(=O)CSC[C@@H](C(=O)N[C@@H](C)C(N)=O)NC(=O)[C@H]([C@@H](C)O)NC(=O)[C@H](C(C)C)NC(=O)[C@H](CC(C)C)NC(=O)[C@H](CC(N)=O)NC(=O)[C@H]2CCCN2C(=O)[C@H](C)N(C)C(=O)[C@H](C(C)C)NC(=O)[C@H](Cc2ccc(-c3ccccc3)cc2)NC1=O [Example 1050] ({CH2CO}-FYDWL[Bip]V[NMeA][dP]NLVTCA-NH2; thioether N-14),0.11 µM
3,"CC(C)C[C@@H]1NC(=O)[C@H](Cc2c[nH]c3ccccc23)NC(=O)[C@H](CC(=O)O)NC(=O)[C@H](Cc2cc(F)c(F)c(F)c2)NC(=O)[C@H](Cc2ccccc2)NC(=O)CSC[C@@H](C(=O)N[C@@H](C)C(N)=O)NC(=O)[C@H](CO)NC(=O)[C@H](C(C)C)NC(=O)[C@H](CC(C)C)NC(=O)[C@H](CC(N)=O)NC(=O)CN(C)C(=O)[C@H](C)N(C)C(=O)[C@H](C(C)C)NC(=O)[C@H](Cc2ccc(-c3ccccc3)cc2)NC1=O [Example 1146] ({CH2CO}-F[Phe(3,4,5-F3)]DWL[Bip]V[NMeA][Sar]NLVSCA-NH2; thioether N-14)",0.65 µM
4,CC(C)C[C@@H]1NC(=O)[C@H](Cc2c[nH]c3ccccc23)NC(=O)[C@H](CC(=O)O)NC(=O)[C@H](Cc2ccc(O)cc2)NC(=O)[C@H](Cc2ccccc2)NC(=O)CSC[C@@H](C(=O)N[C@@H](CN)C(N)=O)NC(=O)[C@H](CO)NC(=O)[C@H](C(C)C)NC(=O)[C@H](CC(C)C)NC(=O)[C@H](CC(N)=O)NC(=O)CN(C)C(=O)[C@H](C)N(C)C(=O)[C@H](C(C)C)NC(=O)[C@H](Cc2ccc(-c3ccccc3)cc2)NC1=O [Example 1168] ({CH2CO}-FYDWL[Bip]V[NMeA][Sar]NLVSC[Dap]-NH2; thioether N-14),0.93 µM
5,CC(C)C[C@@H]1NC(=O)[C@H](Cc2c[nH]c3ccccc23)NC(=O)[C@H](CC(=O)O)NC(=O)[C@H](Cc2ccc(O)cc2)NC(=O)[C@H](Cc2ccccc2)NC(=O)CSC[C@@H](C(=O)N[C@@H](C)C(N)=O)NC(=O)[C@H](CO)NC(=O)[C@H](C(C)C)NC(=O)[C@H](CC(C)C)NC(=O)[C@H](CCCCN)NC(=O)CN(C)C(=O)[C@H](C)N(C)C(=O)[C@H](C(C)C)NC(=O)[C@H](Cc2ccc(-c3ccccc3)cc2)NC1=O [Example 1099] ({CH2CO}-FYDWL[Bip]V[NMeA][Sar]KLVSCA-NH2; thioether N-14),0.31 µM
6,CC(C)C[C@@H]1NC(=O)[C@H](C)NC(=O)[C@H]2CCCN2C(=O)[C@H](C)N(C)C(=O)[C@H](CCC(=O)O)NC(=O)[C@H](Cc2ccc(-c3ccccc3)cc2)NC(=O)[C@H](CC(C)C)NC(=O)[C@H](Cc2c[nH]c3ccccc23)NC(=O)[C@H](CC(=O)O)NC(=O)[C@H](Cc2ccc(O)cc2)NC(=O)[C@H](Cc2ccccc2)NC(=O)CSC[C@@H](C(=O)N[C@@H](C)C(N)=O)NC(=O)[C@H](CO)NC(=O)[C@H](C(C)C)NC1=O [Example 1028] ({CH2CO}-FYDWL[Bip]E[NMeA][dP]ALVSCA-NH2; thioether N-14),0.05 µM
7,CC(C)C[C@@H]1NC(=O)[C@H](Cc2c[nH]c3ccccc23)NC(=O)[C@H](CC(=O)O)NC(=O)[C@H](CCc2ccc(O)cc2)NC(=O)[C@H](Cc2ccccc2)NC(=O)CSC[C@@H](C(=O)N[C@@H](C)C(N)=O)NC(=O)[C@H](CO)NC(=O)[C@H](C(C)C)NC(=O)[C@H](CC(C)C)NC(=O)[C@H](CC(N)=O)NC(=O)CN(C)C(=O)[C@H](C)N(C)C(=O)[C@H](C(C)C)NC(=O)[C@H](Cc2ccc(-c3ccccc3)cc2)NC1=O [Example 1086] ({CH2CO}-F[hTyr]DWL[Bip]V[NMeA][Sar]NLVSCA-NH2; thioether N-14),0.25 µM

# Now from value to molecule:
row,IC50,SMILES
1,0.14 µM,CC(C)C[C@@H]1NC(=O)[C@H](Cc2c[nH]c3ccccc23)NC(=O)[C@H](CC(=O)O)NC(=O)[C@H](Cc2ccc(OCC(=O)O)cc2)NC(=O)[C@H](CN)NC(=O)CSC[C@@H](C(=O)N[C@@H](C)C(N)=O)NC(=O)[C@H](CO)NC(=O)[C@H](C(C)C)NC(=O)[C@H](CC(C)C)NC(=O)[C@H](CC(N)=O)NC(=O)[C@H]2CCCN2C(=O)[C@H](C)N(C)C(=O)[C@H](C(C)C)NC(=O)[C@H](Cc2ccc(-c3ccccc3)cc2)NC1=O [Example 1386] ({CH2CO}-[Dap]Y(Carboxymethyl)DWL[Bip]V[NMeA][dP]NLVSCA-NH2; thioether N-14)
2,0.06 µM,CC(C)C1NC(=O)[C@H](Cc2c[nH]c3ccccc23)NC(=O)[C@H](CC(=O)O)NC(=O)[C@H](Cc2ccc(O)cc2)NC(=O)[C@H](CC(N)=O)NC(=O)CSC[C@@H](C(=O)N[C@@H](C)C(N)=O)NC(=O)[C@H]([C@@H](C)O)NC(=O)[C@H](C(C)C)NC(=O)[C@H](CC2CCCCC2)NC(=O)[C@H](CCN)NC(=O)[C@H](Cc2ccccc2)N(C)C(=O)[C@H](CCCN)NC(=O)[C@H](CCC(=O)O)NC(=O)[C@H](Cc2ccc(-c3ccccc3)cc2)NC1=O (stereo partly shown) [Example 1441] ({CH2CO}-NYDW[ξV][Bip]E[Orn][NMeF][Dab][Cha]VTCA-NH2; thioether N-14)
3,0.85 µM,CC(C)C[C@@H]1NC(=O)[C@H](CCCNC(=N)N)NC(=O)[C@H](Cc2ccccc2)N(C)C(=O)[C@H](C)N(C)C(=O)[C@H](CCCNC(=N)N)NC(=O)[C@H](Cc2ccc(-c3ccccc3)cc2)NC(=O)[C@H](C(C)C)NC(=O)[C@H](Cc2c[nH]c3ccccc23)NC(=O)[C@H](CC(=O)O)NC(=O)[C@H](Cc2ccc(O)cc2)NC(=O)[C@H](C)NC(=O)CSC[C@@H](C(=O)NCC(N)=O)NC(=O)[C@H](CO)NC(=O)[C@H](C(C)C)NC1=O [Example 1203] ({CH2CO}-AYDWV[Bip]R[NMeA][NMeF]RLVSCG-NH2; thioether N-14)
4,0.41 µM,CC(C)C[C@@H]1NC(=O)[C@H](CCCNC(=N)N)NC(=O)[C@H](Cc2ccccc2)N(C)C(=O)[C@H](C)N(C)C(=O)[C@H](CCCNC(=N)N)NC(=O)[C@H](Cc2ccc(-c3ccccc3)cc2)NC(=O)[C@H](C(C)C)NC(=O)[C@H](Cc2c[nH]c3ccccc23)NC(=O)[C@H](CC(=O)O)NC(=O)[C@H](Cc2ccc(O)cc2)NC(=O)[C@H](CC(N)=O)NC(=O)CSC[C@@H](C(=O)N[C@@H](C)C(N)=O)NC(=O)[C@H]([C@@H](C)O)NC(=O)[C@H](C(C)C)NC1=O [Example 1355] ({CH2CO}-NYDWV[Bip]R[NMeA][NMeF]RLVTCA-NH2; thioether N-14)
5,0.44 µM,CC(C)C[C@@H]1NC(=O)[C@H](CC(N)=O)NC(=O)CN(C)C(=O)[C@H](CCCNC(=N)N)NC(=O)[C@H](C(C)C)NC(=O)[C@H](Cc2ccc(-c3ccccc3)cc2)NC(=O)[C@H](C(C)C)NC(=O)C(Cc2c[nH]c3ccccc23)NC(=O)[C@H](CC(=O)O)NC(=O)[C@H](Cc2ccc(O)cc2)NC(=O)[C@H](Cc2ccccc2)NC(=O)CSC[C@@H](C(=O)NCC(N)=O)NC(=O)[C@H](CO)NC(=O)[C@H](C(C)C)NC1=O (stereo partly shown) [Example 1229] ({CH2CO}-FYD[ξW]V[Bip]VR[Sar]NLVSCG-NH2; thioether N-14)
6,0.68 µM,CC(C)C[C@@H]1NC(=O)[C@H](CCCNC(=N)N)NC(=O)[C@H](Cc2ccccc2)N(C)C(=O)[C@H](C)N(C)C(=O)[C@H](CCCNC(=N)N)NC(=O)[C@H](Cc2ccc(-c3ccccc3)cc2)NC(=O)[C@H](C(C)C)NC(=O)[C@H](Cc2c[nH]c3ccccc23)NC(=O)[C@H](CC(=O)O)NC(=O)[C@H](Cc2ccc(O)cc2)NC(=O)[C@H](Cc2ccccc2)NC(=O)CSC[C@@H](C(=O)NCC(N)=O)NC(=O)[C@H](CC(=O)O)NC(=O)[C@H](C(C)C)NC1=O [Example 1333] ({CH2CO}-FYDWV[Bip]R[NMeA][NMeF]RLVDCG-NH2; thioether N-14)
7,0.12 µM,CC(C)C[C@@H]1NC(=O)[C@H](CCN)NC(=O)[C@H](Cc2ccccc2)N(C)C(=O)[C@H](C)N(C)C(=O)[C@H](CCCNC(=N)N)NC(=O)[C@H](Cc2ccc(-c3ccccc3)cc2)NC(=O)[C@H](C(C)C)NC(=O)[C@H](Cc2c[nH]c3ccccc23)NC(=O)[C@H](CC(=O)O)NC(=O)[C@H](Cc2ccc(O)cc2)NC(=O)[C@H](Cc2ccccc2)NC(=O)CSC[C@@H](C(=O)N[C@@H](C)C(N)=O)NC(=O)[C@H]([C@@H](C)O)NC(=O)[C@H](C(C)C)NC1=O [Example 1322] ({CH2CO}-FYDWV[Bip]R[NMeA][NMeF][Dab]LVTCA-NH2; thioether N-14)
8,0.09 µM,CC(C)C[C@@H]1NC(=O)C(CCCNC(=N)N)NC(=O)[C@H](Cc2ccccc2)N(C)C(=O)[C@H](CCCCN)NC(=O)[C@H](CCCNC(=N)N)NC(=O)[C@H](Cc2ccc(-c3ccccc3)cc2)NC(=O)[C@H](C(C)C)NC(=O)[C@H](Cc2c[nH]c3ccccc23)NC(=O)[C@H](CC(=O)O)NC(=O)[C@H](Cc2ccc(O)cc2)NC(=O)[C@H](Cc2ccccc2)NC(=O)CSC[C@@H](C(=O)NCC(N)=O)NC(=O)[C@H](CO)NC(=O)[C@H](C(C)C)NC1=O (stereo partly shown) [Example 1216] ({CH2CO}-FYDWV[Bip]RK[NMeF][ξR]LVSCG-NH2; thioether N-14)
9,0.13 µM,CC(C)C[C@@H]1NC(=O)CSC[C@@H](C(=O)N[C@@H](C)C(N)=O)NC(=O)[C@H]([C@@H](C)O)NC(=O)[C@H](C(C)C)NC(=O)[C@H](CC(C)C)NC(=O)[C@H](CCCNC(=N)N)NC(=O)[C@H](Cc2ccccc2)N(C)C(=O)[C@H](C)N(C)C(=O)[C@H](CCCNC(=N)N)NC(=O)[C@H](Cc2ccc(-c3ccccc3)cc2)NC(=O)[C@H](C(C)C)NC(=O)[C@H](Cc2c[nH]c3ccccc23)NC(=O)[C@H](CC(=O)O)NC(=O)[C@H](Cc2ccc(O)cc2)NC1=O [Example 1319] ({CH2CO}-LYDWV[Bip]R[NMeA][NMeF]RLVTCA-NH2; thioether N-14)
